Test results taken from patent US8697652B2, “Cosmetic use of at least the natural tetrapeptide Ac-Ser-Asp-Lys-Pro or one of its analogs as a skin restructuring agent” (Centre National de la Recherche Scientifique (CNRS), priority 2004, dated 2014).
Ends that are not written are not given here.

What was measured:
Assay type in all cases: cell-based
[1] = system: fibronectin; experiment: Immunolabelling of fibronectin in human skin explants
Procedure: (§1) This study was conducted on thirty six human skin explants obtained from breast plastic surgery.
(§2) All the explants were maintained in a state of survival in a culture medium for eight days. AcSDKP at a concentration of 10^−5 M or 10^−8 M in physiological serum was applied to the explants by topical route every day for one week. On days 2, 4, 6 and 8, three explants from each batch (control, +AcSDKP 10^−5 M+ AcSDKP 10^−8 M) were removed and prepared for histological studies. General morphology was examined and an evaluation of the expression of basal keratin (CK14), undifferentiated keratin (CK19), collagen III, collagen IV, fibronectin and glycosaminoglycan without an acid group was performed.

[2] = system: Basal Membrane Collagen (Type IV); experiment: Immunolabelling of collagen IV in human skin explants
Procedure: as §1, §2

[3] = system: Dermal Collagen (Type III); experiment: Immunolabelling of collagen III in human skin explants
Procedure: as §1, §2

[4] = system: human skin explants; experiment: General morphology (Masson Trichrome) of human skin explants treated topically with AcSDKP
Procedure: as §1, §2
This is seen by an increased number of live cell bases.

[5] = system: Keratin 14 (CK14); experiment: Immunolabelling of keratin 14 in human skin explants
Procedure: as §1, §2

[6] = system: Keratin 19 (CK19); experiment: Immunolabelling of keratin 19 in human skin explants
Procedure: as §1, §2

[7] = system: Glycosaminoglycan (GAGs); experiment: P.A.S. Alcian blue staining of GAGs without acid groups in human skin explants
Procedure: as §1, §2
This effect, clearly visible at D6 and D8, is characterised by a PAS positive increase in the number of fibroblasts in the papillary dermis, especially in the band situated along the dermo-epidermal junction and by increased levels of GAGs in these fibroblasts.

[8] = AcSDKP 10^-5 M compared with 10^-8 M

Acetyl-Ser-Asp-Lys-Pro (Ac-SDKP) [AcSDKP, natural tetrapeptide isolated from calf foetus bone marrow or obtained by peptide synthesis]
fibronectin activity [1, 8]: greater activity | fibronectin network ([1]; area treated with AcSDKP): denser and has thicker fibres | fibronectin expression (immunolabelling, summary) ([1]; treated skin): overexpression of this protein along a dermo-epidermal junction as well as in the papillary and reticular dermis | increase in collagen IV levels [2, 8]: higher | increase in collagen IV levels in the basal membrane along the dermo-epidermal junction ([2]; AcSDKP 10^-5 M or 10^-8 M, D6 and D8, compared with type III collagen): less pronounced than that for type III collagen | expression of collagen IV in treated skin (summary) ([2]; summary statement): stimulatory effect | collagen III expression ([3]; AcSDKP 10^-5 M, D8): very clear overexpression of collagen III in the papillary and reticular dermis | collagen III levels ([3]; AcSDKP 10^-5 M, six days of treatment): very marked increase in collagen III levels in the papillary dermis along the dermo-epidermal junction | collagen III in the remainder of the papillary dermis and reticular dermis ([3]; AcSDKP 10^-8 M, D6): more present | collagen III expression along the dermo-epidermal junction ([3]; AcSDKP 10^-8 M, D6, compared with 10^-5 M): less pronounced | level of collagen III ([3]; AcSDKP 10^-8 M, D8): increases along the dermo-epidermal junction and forms a thicker collagen band | expression of collagen III in treated skin (summary) ([3]; summary statement): stimulatory effect | increase in epidermal thickness [4, 8]: greater | epidermal structure (general morphology) ([4]; AcSDKP 10^-5 M or 10^-8 M, topical daily, as of D6 of treatment): stimulation of the epidermal structure | overall effect on epidermis and dermis (conclusion) ([4]; conclusion of explant study): restructuring of the epidermis and dermis | CK14 restructuring effect [5, 8]: greater | CK14 levels (immunolabelling) ([5]; basal and superbasal position, as of D4 of treatment): gradual increase in the levels of this protein | production of CK14 in treated skin (summary) ([5]; summary statement): stimulates the production | CK19 effect [6, 8]: less marked effect | CK19 expression (immunolabelling) ([6]; AcSDKP 10^-5 M or 10^-8 M, as of D6 of treatment): overexpression of the skin's dermal attachments | production of CK19 in treated skin (summary) ([6]; summary statement): stimulates the production | GAG activity [7, 8]: higher level of activity | levels of GAGs without acid groups ([7]; AcSDKP 10^-5 M or 10^-8 M, clearly visible at D6 and D8): significant increase in the levels of these compounds
